Twelve compounds from ChEMBL document CHEMBL1201862, “PubChem BioAssay data set” (2004) can be followed below.

As a reminder, the GI50 is the concentration that inhibits growth by half.

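Assay format: 96-well plates, 48-hour exposure. GI50 marks 50% less growth.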 Activity calls are given as the source filed them. Rule as the data show it: active = GI50 up to about 1.1 µM and inactive = higher.

Test systems include A498; CCRF-CEM; HCT-116; HCT-15; HL-60; K562; KM12; LOX IMVI; MCF7; MOLT-4; NCI-H522; SF-295; SK-MEL-5; SK-OV-3; SN12C; SNB-19; SNB-75; 786-0.
Assay in all cases: DTP human tumour cell line panel, 48 h

In the case of `CC1=C(O)C(=O)[C@@H]2O[C@@H]2C1=O`, the GI50 in the test with A498 was 7.13 µM (inactive); with CCRF-CEM, 1.6 µM (inactive); in the test with HCT-116, 7.36 µM (inactive); in the test with HCT-15, 7.01 µM; in the test on HL-60 it was 2.2 µM (inactive); with K562, 5.64 µM (inactive). Further, the GI50 in the test with KM12 is 14.1 µM (inactive); in the test with LOX IMVI, 12.5 µM (inactive); in the test on MCF7, 10 µM (inactive); in the test on MOLT-4, 2.97 µM (inactive); in the test on NCI-H522 it was 2 µM (inactive); in the test on SF-295, 28.2 µM (inactive). For the same compound, the GI50 in the test with SK-MEL-5 was 16.1 µM (inactive); in the test on SK-OV-3 it was 33.4 µM (inactive); in the test with SN12C it was 19.3 µM (inactive); in the test with SNB-19 it was 32.8 µM (inactive); in the test with SNB-75, 17.4 µM (inactive).
Consider `O=C1CSC(Cc2nc3ccccc3[nH]2)=N1`, for which the GI50 with 786-0 was 17.1 µM (inactive); with A498 it was 5.98 µM (inactive); in the test on CCRF-CEM, 6.4 µM (inactive); with HCT-116, 12.9 µM (inactive); in the test with HCT-15, 17.5 µM; in the test with HL-60 it was 28.6 µM (inactive). Also, the GI50 was 15 µM (inactive) in the test on K562; 17.6 µM (inactive) with KM12; 13.9 µM (inactive) in the test with LOX IMVI; 9.98 µM (inactive) in the test on MOLT-4; 17.7 µM (inactive) in the test on NCI-H522; 24.7 µM (inactive) in the test with SF-295. Further, the GI50 was 7.45 µM (inactive) in the test on SK-MEL-5; 36.1 µM (inactive) with SK-OV-3; 18.1 µM (inactive) with SN12C; 21.1 µM (inactive) in the test on SNB-19; 17.1 µM (inactive) in the test with SNB-75.
`COc1cc2c(cc1OC)C(Cl)C(c1ccc(Cl)cc1)=C2Cl` (stereo unspecified): the GI50 with A498 is 18.6 µM (inactive); in the test with CCRF-CEM it was 6.15 µM (inactive); in the test with HCT-15, 14.5 µM; in the test with HL-60, 11.4 µM (inactive); in the test with K562 it was 7.66 µM (inactive); with LOX IMVI, 12.1 µM (inactive). The GI50 was 6.73 µM (inactive) with MOLT-4; 12 µM (inactive) with NCI-H522; 14.5 µM (inactive) with SF-295; 14.4 µM (inactive) in the test with SK-MEL-5; 28.5 µM (inactive) in the test on SK-OV-3; 17.5 µM (inactive) with SN12C. For the same compound, the GI50 in the test on SNB-19 is 27.2 µM (inactive); with SNB-75 it was 19.1 µM (inactive).
As to `CC(=O)Nc1ccc(C(=O)NN2C(=O)C(Cl)C2c2cc(Br)cc(Br)c2O)cc1` (stereo unspecified), the GI50 with 786-0 was > 100 µM (inactive); with A498, > 100 µM (inactive); in the test on CCRF-CEM it was > 100 µM (inactive); in the test with HCT-116, > 100 µM (inactive); with HCT-15 it was greater than 100 µM; in the test on HL-60 it was > 100 µM (inactive). In addition, the GI50 in the test on K562, with KM12, in the test with LOX IMVI, in the test on MOLT-4, in the test on NCI-H522 and in the test on SK-MEL-5 was > 100 µM (inactive) in each case. Moreover, the GI50 is > 100 µM (inactive) in the test on SK-OV-3, > 100 µM (inactive) with SN12C, > 100 µM (inactive) in the test with SNB-19 and 37.3 µM (inactive) in the test on SNB-75.
For the compound `C#CCCCCC#CC1CCCC1C1=CC(=O)c2ccccc21` (stereo unspecified), the GI50 was 15 µM (inactive) with A498; 1.5 µM (inactive) in the test on CCRF-CEM; 1.47 µM (inactive) with HCT-116; 7.24 µM with HCT-15; 1.33 µM (inactive) with HL-60; 2.4 µM (inactive) in the test on K562. For the same compound, the GI50 was 6.27 µM (inactive) in the test on KM12; 3.22 µM (inactive) in the test with LOX IMVI; 2.25 µM (inactive) with MOLT-4; 7.93 µM (inactive) with NCI-H522; 5.25 µM (inactive) in the test on SF-295; 7.67 µM (inactive) in the test with SK-MEL-5. In addition, the GI50 is 15.3 µM (inactive) in the test with SK-OV-3, 6.38 µM (inactive) in the test on SN12C, 15.5 µM (inactive) with SNB-19 and 5.45 µM (inactive) with SNB-75.
For the compound `C=C1CC(OC)(C(O)C(=O)N[C@H]2OCO[C@H]3C2O[C@H](C[C@H](O)COC)C(C)(C)C3OC)O[C@H](C)[C@@H]1C` (stereo partly specified), the GI50 with A498 was < 0.00773 µM (active); in the test with CCRF-CEM it was < 0.00773 µM (active); with HCT-116, < 0.00773 µM (active); in the test with HCT-15, less than 0.00773 µM; in the test with HL-60, < 0.00773 µM (active); with K562, < 0.00773 µM (active). The GI50 in the test on KM12, in the test with LOX IMVI, in the test on MCF7, in the test with MOLT-4, in the test with NCI-H522 and with SF-295 was < 0.00773 µM (active) each time. Also, the GI50 in the test with SK-MEL-5, with SN12C, with SNB-19 and in the test with SNB-75 was < 0.00773 µM (active) throughout.
On to `COC(=O)c1ccc(/N=N/N(C)CO)cc1`, for which the GI50 in the test on 786-0 was 74 µM (inactive); in the test on A498, 51.8 µM (inactive); in the test on CCRF-CEM, > 100 µM (inactive); in the test on HCT-116, > 100 µM (inactive); in the test on HCT-15, greater than 100 µM; with HL-60, > 100 µM (inactive). Moreover, the GI50 with K562 is 68.4 µM (inactive); with KM12, > 100 µM (inactive); in the test on LOX IMVI, > 100 µM (inactive); in the test on MOLT-4 it was > 100 µM (inactive); in the test on NCI-H522 it was > 100 µM (inactive); in the test with SF-295 it was 78 µM (inactive). The GI50 in the test on SK-MEL-5 was > 100 µM (inactive); in the test with SK-OV-3, 40.5 µM (inactive); in the test with SN12C it was > 100 µM (inactive); in the test on SNB-19, 86.5 µM (inactive); in the test on SNB-75 it was 27.7 µM (inactive).
As for `CC(O)/C=C/C(CCC(C)CO)C(C)C` (stereo unspecified), the GI50 in the test on 786-0 was > 100 µM (inactive); in the test with A498, > 100 µM (inactive); with CCRF-CEM, > 100 µM (inactive); in the test with HCT-116 it was > 100 µM (inactive); with HCT-15, greater than 100 µM; with HL-60, > 100 µM (inactive). Further, the GI50 with K562, in the test on KM12, in the test with LOX IMVI, with MOLT-4, in the test with NCI-H522 and in the test with SF-295 was > 100 µM (inactive) in each case. Also, the GI50 with SK-MEL-5, in the test on SK-OV-3, in the test with SN12C, in the test with SNB-19 and with SNB-75 was > 100 µM (inactive) throughout.
In the case of `O=C(O)CCc1cccc2c1oc1c(CCC(=O)O)cccc12`, the GI50 in the test with 786-0 was > 100 µM (inactive); with A498, > 100 µM (inactive); in the test with CCRF-CEM, > 100 µM (inactive); in the test with HCT-116, > 100 µM (inactive); in the test with HCT-15, greater than 100 µM; in the test on HL-60, > 100 µM (inactive). For the same compound, the GI50 with K562, with KM12, with LOX IMVI, with MOLT-4, with NCI-H522 and in the test on SF-295 was > 100 µM (inactive) each time. Further, the GI50 in the test on SK-MEL-5, with SK-OV-3, in the test with SN12C, in the test with SNB-19 and in the test on SNB-75 was > 100 µM (inactive) in each case.
With `O=C(CSSCC(=O)Nc1ccc(Br)cc1)Nc1ccc(Br)cc1`, the GI50 is 17.6 µM (inactive) with 786-0; 19.6 µM (inactive) in the test on A498; 14.4 µM (inactive) in the test on HCT-116; 19.6 µM in the test on HCT-15; 16.9 µM (inactive) in the test on HL-60; 21.2 µM (inactive) in the test with K562. In addition, the GI50 in the test on KM12 is 19.1 µM (inactive); with LOX IMVI it was 10.8 µM (inactive); in the test on MOLT-4 it was 14.1 µM (inactive); with NCI-H522 it was 12.2 µM (inactive); in the test with SF-295, 14.7 µM (inactive); in the test with SK-MEL-5, 24 µM (inactive). Also, the GI50 with SK-OV-3 was 25.4 µM (inactive); in the test on SN12C it was 16.3 µM (inactive); with SNB-19, 15.3 µM (inactive); in the test with SNB-75, 20.7 µM (inactive).
Turning to `Cc1cccc(C)c1NC(=O)CCC(=O)NC(N)=S`, the GI50 in the test with 786-0 was > 100 µM (inactive); in the test with A498, > 100 µM (inactive); in the test on CCRF-CEM it was > 100 µM (inactive); with HCT-116 it was > 100 µM (inactive); in the test on HCT-15 it was greater than 100 µM; with HL-60 it was > 100 µM (inactive). The GI50 in the test on K562, in the test with KM12, in the test on LOX IMVI, in the test with MOLT-4, in the test on NCI-H522 and in the test on SF-295 was > 100 µM (inactive) each time. In addition, the GI50 in the test with SK-MEL-5, with SK-OV-3, with SN12C, with SNB-19 and with SNB-75 was > 100 µM (inactive) in each case.
On to `Cc1cc(C)n(CCNCCn2nc(C)cc2C)n1`, for which the GI50 in the test on 786-0, with A498, with CCRF-CEM, with HCT-116, in the test with HL-60 and in the test on K562 was > 100 µM (inactive) in each case. Besides, the GI50 in the test on KM12, in the test with LOX IMVI, with MOLT-4, in the test on NCI-H522, in the test on SF-295 and in the test with SK-MEL-5 was > 100 µM (inactive) throughout. Moreover, the GI50 in the test on SK-OV-3, in the test on SN12C, in the test with SNB-19 and in the test with SNB-75 was > 100 µM (inactive) throughout.
